Laboratory results published in PMC4643674 (Journal of medicinal chemistry, 2013).

Legend:
GluN1/GluN2D [1] = target: GluN1/GluN2D (Rattus norvegicus, UniProt Q62645); format: cell-based
[2] = human liver microsomal stability; format: in vitro ADME
NMDA receptor subtypes = test: two-electrode voltage clamp, activity statements without named subtype; format: cell-based; conditions: receptor subtype not named
P-gp (MDR1) = test: MDR1-MDCK permeability assay; format: in vitro ADME, canine; conditions: dog; for Papp A→B at 120 min, 5 µM / Papp B→A at 120 min, 5 µM: MDCK-MDR1, pH 7.4, Papp; for recovery at 120 min, 5 µM: MDCK-MDR1, pH 7.4, Recovery (%)
[3] = system: 42 different ion channels, G-protein coupled receptors, and transporters; test: NIMH PDSP primary binding assay; conditions: 5 µM compound
plasma stability, mouse = format: in vitro ADME; conditions: two-hour time-course, Figure S2
plasma stability, rat = format: in vitro ADME; conditions: two-hour time-course, Figure S2
GluK1 = GluK1 (Rattus norvegicus, UniProt P22756); test: off-target two-electrode voltage clamp, GluK1; format: cell-based; conditions: read-out: ITEST / ICONTROL (mean ± SEM, %)
GluK1, sequence (P22756 31-949): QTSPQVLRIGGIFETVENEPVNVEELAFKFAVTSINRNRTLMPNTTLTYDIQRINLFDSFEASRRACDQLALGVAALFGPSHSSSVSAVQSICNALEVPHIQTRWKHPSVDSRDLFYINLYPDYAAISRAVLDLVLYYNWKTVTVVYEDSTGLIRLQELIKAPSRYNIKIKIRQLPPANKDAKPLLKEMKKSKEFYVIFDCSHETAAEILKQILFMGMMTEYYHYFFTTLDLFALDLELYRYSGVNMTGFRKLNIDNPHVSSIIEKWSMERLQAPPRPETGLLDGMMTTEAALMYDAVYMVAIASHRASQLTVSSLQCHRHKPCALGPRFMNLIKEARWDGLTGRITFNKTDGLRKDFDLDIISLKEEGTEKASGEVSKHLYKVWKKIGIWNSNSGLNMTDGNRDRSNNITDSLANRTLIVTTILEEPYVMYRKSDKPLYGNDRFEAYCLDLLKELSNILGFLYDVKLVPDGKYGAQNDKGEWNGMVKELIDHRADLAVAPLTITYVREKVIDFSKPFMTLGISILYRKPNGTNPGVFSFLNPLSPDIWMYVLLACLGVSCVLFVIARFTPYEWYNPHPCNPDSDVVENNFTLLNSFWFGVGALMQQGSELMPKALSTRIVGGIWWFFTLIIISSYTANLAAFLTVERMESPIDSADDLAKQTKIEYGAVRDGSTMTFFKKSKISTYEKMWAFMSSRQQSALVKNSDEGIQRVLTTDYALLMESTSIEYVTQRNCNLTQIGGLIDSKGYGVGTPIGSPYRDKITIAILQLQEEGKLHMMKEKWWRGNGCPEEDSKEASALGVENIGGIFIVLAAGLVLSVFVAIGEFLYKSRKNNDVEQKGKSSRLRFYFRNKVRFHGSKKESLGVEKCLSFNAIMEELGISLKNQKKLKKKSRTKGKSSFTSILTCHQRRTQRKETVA

GluA3 = GluA3 (Rattus norvegicus, UniProt P19492); test: off-target two-electrode voltage clamp, GluA3; format: cell-based; conditions: read-out: ITEST / ICONTROL (mean ± SEM, %)
plasma stability, human = format: in vitro ADME; conditions: two-hour time-course, Figure S2
[4] = system: GluN2D receptor mutants (Q801Y, L705F and A752V); test: inhibition of mutant GluN2D receptors; format: cell-based; conditions: mutants vs wild type GluN2D; Figure S1
MDR1-MDCK = MDR1-MDCK permeability assay; format: in vitro ADME, canine; conditions: A-to-B; 5 µM; 120 minutes
GluN1/GluN2C = GluN1/GluN2C (Rattus norvegicus, UniProt P35439+Q00961); format: cell-based
GluN1/GluN2C, sequence (Q00961 20-1237, other chains not shown): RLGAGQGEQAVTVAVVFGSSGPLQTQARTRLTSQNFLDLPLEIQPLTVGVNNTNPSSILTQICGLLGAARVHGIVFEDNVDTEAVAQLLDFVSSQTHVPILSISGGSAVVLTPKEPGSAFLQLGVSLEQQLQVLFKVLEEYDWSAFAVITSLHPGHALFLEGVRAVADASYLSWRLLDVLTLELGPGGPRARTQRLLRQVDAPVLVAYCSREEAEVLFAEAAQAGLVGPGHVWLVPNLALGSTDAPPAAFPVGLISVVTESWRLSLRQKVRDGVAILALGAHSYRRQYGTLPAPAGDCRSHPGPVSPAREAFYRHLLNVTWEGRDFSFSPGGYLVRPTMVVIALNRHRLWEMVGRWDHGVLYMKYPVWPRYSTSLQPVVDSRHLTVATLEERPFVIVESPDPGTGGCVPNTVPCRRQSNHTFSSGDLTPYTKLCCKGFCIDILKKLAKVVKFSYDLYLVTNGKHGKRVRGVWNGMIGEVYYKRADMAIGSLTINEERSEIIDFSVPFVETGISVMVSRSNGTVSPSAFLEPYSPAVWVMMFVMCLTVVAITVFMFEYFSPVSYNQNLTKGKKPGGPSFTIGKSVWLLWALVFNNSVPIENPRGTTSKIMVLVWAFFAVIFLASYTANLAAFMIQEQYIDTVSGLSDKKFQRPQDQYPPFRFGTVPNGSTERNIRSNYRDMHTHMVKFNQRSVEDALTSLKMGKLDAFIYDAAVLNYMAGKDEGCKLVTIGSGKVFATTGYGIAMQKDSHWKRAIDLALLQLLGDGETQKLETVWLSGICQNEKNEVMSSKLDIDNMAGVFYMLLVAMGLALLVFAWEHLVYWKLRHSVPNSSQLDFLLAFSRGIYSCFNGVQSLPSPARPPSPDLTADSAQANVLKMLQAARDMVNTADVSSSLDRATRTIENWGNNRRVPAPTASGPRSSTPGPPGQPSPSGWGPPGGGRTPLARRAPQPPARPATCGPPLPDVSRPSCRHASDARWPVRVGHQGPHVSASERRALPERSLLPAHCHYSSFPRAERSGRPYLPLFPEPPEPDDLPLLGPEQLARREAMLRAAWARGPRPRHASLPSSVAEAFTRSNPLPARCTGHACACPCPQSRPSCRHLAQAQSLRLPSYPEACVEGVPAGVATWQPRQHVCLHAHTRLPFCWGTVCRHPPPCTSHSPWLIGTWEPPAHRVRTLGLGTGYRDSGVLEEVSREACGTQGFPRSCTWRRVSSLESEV

GluN1/GluN2D [5] = target: GluN1/GluN2D (Rattus norvegicus, UniProt P35439+Q62645); format: cell-based
GluN1/GluN2D (Rattus norvegicus, UniProt P35439+Q62645), sequence (Q62645 28-1323, other chains not shown): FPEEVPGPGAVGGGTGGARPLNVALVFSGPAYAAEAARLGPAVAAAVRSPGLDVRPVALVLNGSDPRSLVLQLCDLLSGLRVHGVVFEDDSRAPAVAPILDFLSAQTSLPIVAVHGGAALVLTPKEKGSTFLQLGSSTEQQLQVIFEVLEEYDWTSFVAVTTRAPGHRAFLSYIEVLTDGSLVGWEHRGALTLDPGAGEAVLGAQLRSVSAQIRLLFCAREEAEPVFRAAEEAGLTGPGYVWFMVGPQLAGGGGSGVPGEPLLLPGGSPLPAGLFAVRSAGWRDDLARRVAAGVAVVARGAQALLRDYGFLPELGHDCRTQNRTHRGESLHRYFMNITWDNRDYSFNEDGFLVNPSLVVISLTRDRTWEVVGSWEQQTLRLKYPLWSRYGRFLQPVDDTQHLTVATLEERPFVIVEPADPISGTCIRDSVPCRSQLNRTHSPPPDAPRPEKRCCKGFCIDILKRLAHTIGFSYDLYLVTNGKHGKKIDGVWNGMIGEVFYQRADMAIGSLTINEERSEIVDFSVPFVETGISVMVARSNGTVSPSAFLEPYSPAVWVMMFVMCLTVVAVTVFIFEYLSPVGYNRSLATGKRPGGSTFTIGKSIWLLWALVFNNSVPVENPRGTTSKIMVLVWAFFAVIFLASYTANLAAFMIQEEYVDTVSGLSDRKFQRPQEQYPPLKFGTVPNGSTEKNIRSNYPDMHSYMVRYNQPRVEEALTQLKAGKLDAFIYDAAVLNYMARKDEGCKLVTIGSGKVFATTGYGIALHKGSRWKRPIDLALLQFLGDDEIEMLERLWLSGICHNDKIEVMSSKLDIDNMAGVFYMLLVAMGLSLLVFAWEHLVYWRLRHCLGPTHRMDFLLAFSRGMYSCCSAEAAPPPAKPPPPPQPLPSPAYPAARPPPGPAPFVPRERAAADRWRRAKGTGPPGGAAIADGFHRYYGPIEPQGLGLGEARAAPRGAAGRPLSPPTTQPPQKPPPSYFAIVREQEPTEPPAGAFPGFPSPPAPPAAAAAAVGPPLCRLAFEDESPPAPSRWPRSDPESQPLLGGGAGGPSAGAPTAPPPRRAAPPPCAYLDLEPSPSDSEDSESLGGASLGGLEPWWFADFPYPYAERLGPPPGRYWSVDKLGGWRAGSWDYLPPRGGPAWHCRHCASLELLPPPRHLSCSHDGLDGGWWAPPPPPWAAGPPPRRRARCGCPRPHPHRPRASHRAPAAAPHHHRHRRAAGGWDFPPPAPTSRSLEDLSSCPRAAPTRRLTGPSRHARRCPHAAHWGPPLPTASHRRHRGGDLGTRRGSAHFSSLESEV

GluN1/GluN2A = GluN1/GluN2A (Rattus norvegicus, UniProt P35439+Q00959); format: cell-based
GluN1/GluN2B = GluN1/GluN2B (Rattus norvegicus, UniProt P35439+Q00960); format: cell-based
GluN1/GluN2B, sequence (Q00960 27-1482, other chains not shown): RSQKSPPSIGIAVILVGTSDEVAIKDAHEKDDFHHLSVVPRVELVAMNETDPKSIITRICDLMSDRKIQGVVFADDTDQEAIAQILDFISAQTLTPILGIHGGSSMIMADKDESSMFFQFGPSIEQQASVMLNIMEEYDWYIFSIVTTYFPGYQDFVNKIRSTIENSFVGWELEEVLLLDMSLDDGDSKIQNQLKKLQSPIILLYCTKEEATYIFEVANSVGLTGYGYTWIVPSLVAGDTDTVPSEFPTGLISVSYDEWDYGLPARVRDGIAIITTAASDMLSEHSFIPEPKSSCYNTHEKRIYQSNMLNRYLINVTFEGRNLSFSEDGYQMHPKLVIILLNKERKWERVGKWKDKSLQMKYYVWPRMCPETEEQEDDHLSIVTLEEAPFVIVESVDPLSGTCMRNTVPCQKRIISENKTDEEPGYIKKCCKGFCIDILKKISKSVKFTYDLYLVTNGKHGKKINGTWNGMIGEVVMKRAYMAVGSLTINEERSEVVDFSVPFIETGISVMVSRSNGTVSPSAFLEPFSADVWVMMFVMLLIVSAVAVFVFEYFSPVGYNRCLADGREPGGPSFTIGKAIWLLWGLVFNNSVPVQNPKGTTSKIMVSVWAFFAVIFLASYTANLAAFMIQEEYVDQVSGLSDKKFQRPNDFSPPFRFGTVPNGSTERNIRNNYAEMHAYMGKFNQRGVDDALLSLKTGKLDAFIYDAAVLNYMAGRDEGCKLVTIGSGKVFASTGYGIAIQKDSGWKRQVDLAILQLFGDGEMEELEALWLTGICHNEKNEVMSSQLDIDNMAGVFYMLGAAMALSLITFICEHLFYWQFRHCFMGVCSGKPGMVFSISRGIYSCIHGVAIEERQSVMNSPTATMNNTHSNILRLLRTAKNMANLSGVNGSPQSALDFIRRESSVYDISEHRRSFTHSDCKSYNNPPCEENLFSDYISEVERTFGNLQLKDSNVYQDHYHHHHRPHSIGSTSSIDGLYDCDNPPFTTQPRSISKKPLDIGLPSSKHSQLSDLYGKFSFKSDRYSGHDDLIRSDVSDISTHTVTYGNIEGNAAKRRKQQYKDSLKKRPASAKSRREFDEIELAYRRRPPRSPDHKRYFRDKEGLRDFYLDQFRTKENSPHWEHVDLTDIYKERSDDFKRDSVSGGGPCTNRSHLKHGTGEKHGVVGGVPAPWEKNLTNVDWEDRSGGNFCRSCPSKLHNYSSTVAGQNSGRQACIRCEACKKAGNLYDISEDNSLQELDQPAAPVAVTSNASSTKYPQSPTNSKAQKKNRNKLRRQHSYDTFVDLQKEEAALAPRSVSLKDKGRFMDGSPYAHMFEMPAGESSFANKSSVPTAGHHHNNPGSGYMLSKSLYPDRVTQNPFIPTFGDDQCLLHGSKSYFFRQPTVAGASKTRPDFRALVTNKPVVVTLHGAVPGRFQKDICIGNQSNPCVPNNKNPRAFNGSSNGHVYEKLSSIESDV

[6] = human, liver microsomes, pH 7.4

GluN1/GluN2D (Rattus norvegicus, UniProt Q62645), sequence (Q62645 28-1323, other chains not shown): as the sequence (Q62645 28-1323, other chains not shown) above

| Structure (SMILES) | microsomal CLint at 1 µM [2, 6] [µL/min/mg] | remaining at 0 h, 1 µM [2, 6] [%] | Papp A→B at 120 min, 5 µM (P-gp (MDR1); determination 1, A-to-B) [×10⁻⁶ cm/s] | Papp B→A at 120 min, 5 µM (P-gp (MDR1); determination 1, B-to-A) [×10⁻⁶ cm/s] | Papp A→B at 120 min, 5 µM (P-gp (MDR1); determination 2, A-to-B) [×10⁻⁶ cm/s] | Papp B→A at 120 min, 5 µM (P-gp (MDR1); determination 2, B-to-A) [×10⁻⁶ cm/s] | effect in primary binding assay [3] | plasma stability (plasma stability, mouse) | plasma stability (plasma stability, rat) | plasma stability (plasma stability, human) | further results |
| --- | --- | --- | --- | --- | --- | --- | --- | --- | --- | --- | --- |
| O=C(O)CCC(=O)N1N=C(c2c(-c3ccc(Cl)cc3)c3ccccc3[nH]c2=O)C[C@H]1c1ccc(Cl)cc1 [Compound 69] |  |  |  |  |  |  |  |  |  |  | selectivity over other NMDA receptor subunits (GluN1/GluN2D [1]; GluN2D/GluN2C vs other subunits): over 70 fold; fold more potent at GluN2D-containing receptors than the R-enantiomer, 70 (GluN1/GluN2D [1]; S-enantiomer vs R-enantiomer): 11 fold |
| O=C(O)/C=C/C(=O)N1N=C(c2c(-c3ccc(Br)cc3)c3ccccc3[nH]c2=O)CC1c1ccc(Cl)cc1 (stereo not drawn) [Compound 58, (E)-4-{3-[4-(4-Bromophenyl)-2-oxo-1,2-dihydroquinolin-3-yl]-5-(4-chlorophenyl)-4,5-dihydro-1H-pyrazol-1-yl}-4-oxobut-2-enoic acid] |  |  |  |  |  |  | minimal effect | minimal degradation | minimal degradation | minimal degradation | remaining activity at 3 µM (GluK1): 100 ± 4.4%; remaining activity at 3 µM (GluA3): 100 ± 1.1% |
| O=C(O)CCC(=O)N1N=C(c2c(-c3ccc(Cl)cc3)c3ccccc3[nH]c2=O)CC1c1ccc(Cl)cc1 (stereo not drawn) [Compound 26, 4-{5-(4-Chlorophenyl)-3-[4-(4-chlorophenyl)-2-oxo-1,2-dihydroquinolin-3-yl]-4,5-dihydro-1H-pyrazol-1-yl}-4-oxobutanoic acid] | < 20 |  |  | 33.4 |  | 17.9 | minimal effect | minimal degradation | minimal degradation | minimal degradation | effect of mutations on degree of inhibition [4]: significantly reduced the degree of inhibition; degradation in human liver microsomes (in words) ([2]; over the 60 minute assay): minimal degradation; Papp, Avg (MDR1-MDCK): 0.47 10^−6cm/s |

Continued, in another order:

| microsomal CLint at 1 µM [2, 6] [µL/min/mg] | remaining at 0 h, 1 µM [2, 6] [%] | Papp A→B at 120 min, 5 µM (P-gp (MDR1); determination 1, A-to-B) [×10⁻⁶ cm/s] | Papp B→A at 120 min, 5 µM (P-gp (MDR1); determination 1, B-to-A) [×10⁻⁶ cm/s] | Papp A→B at 120 min, 5 µM (P-gp (MDR1); determination 2, A-to-B) [×10⁻⁶ cm/s] | Papp B→A at 120 min, 5 µM (P-gp (MDR1); determination 2, B-to-A) [×10⁻⁶ cm/s] | effect in primary binding assay [3] | plasma stability (plasma stability, mouse) | plasma stability (plasma stability, rat) | plasma stability (plasma stability, human) | Structure (SMILES) | further results |
| --- | --- | --- | --- | --- | --- | --- | --- | --- | --- | --- | --- |
| 40 | 100 | 4.51 | 9.32 | 3.24 | 9.72 |  |  |  |  | O=C(CCCF)N1N=C(c2c(-c3ccc(Cl)cc3)c3ccccc3[nH]c2=O)CC1c1ccc(Cl)cc1 (stereo not drawn) [Compound 68, 4-(4-Chlorophenyl)-3-[5-(4-chlorophenyl)-1-(4-fluorobutanoyl)-4,5-dihydro-1H-pyrazol-3-yl]quinolin-2(1H)-one] | activity (in words) (NMDA receptor subtypes): inactive |
| 110 | 100 | 2.45 | 66.2 | 2.48 | 62.7 |  | minimal degradation | minimal degradation | minimal degradation | O=C(CCCO)N1N=C(c2c(-c3ccc(Cl)cc3)c3ccccc3[nH]c2=O)CC1c1ccc(Cl)cc1 (stereo not drawn) [Compound 64, 4-(4-Chlorophenyl)-3-[5-(4-chlorophenyl)-1-(4-hydroxybutanoyl)-4,5-dihydro-1H-pyrazol-3-yl]quinolin-2(1H)-one] | IC50 (GluN1/GluN2C): 1.7 µM; IC50 (GluN1/GluN2D [5]): 0.69 µM; IC50 (GluN1/GluN2A): 62 µM; half-life at 1 µM [2, 6]: 13 min; remaining at 0.5 h, 1 µM [2, 6]: 24%; remaining at 1 h, 1 µM [2, 6]: 6.5%; IC50 (GluN1/GluN2B): 33 µM; efflux ratio at 120 min, 5 µM (P-gp (MDR1); MDCK-MDR1, pH 7.4): 26; Papp B→A at 120 min, 5 µM (P-gp (MDR1); Avg, B-to-A): 64.5 ×10⁻⁶ cm/s; recovery at 120 min, 5 µM (P-gp (MDR1); A-to-B): 43%; recovery at 120 min, 5 µM (P-gp (MDR1); B-to-A): 73% |
